Test system: 425362-245-T-J1 tumor spheroids, viability % test/control
Assay: Anticancer human tumor 425362-245-T-J1 patient-derived melanoma cell line growth inhibition
Conditions: spheroids with HUVEC and MSC; for viability, T/C: stronger effect = lower value
Procedure, shortened: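 Single agents and combinations were tested on spheroids built from tumor cells plus HUVEC and hMSC, at half-log dilutions starting at or near clinical Cmax, else 10 microM; final DMSO 0.25% (v/v).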

[1] = curve of first compound, second compound 1 µM
[2] = curve of first compound, second compound 3.16 µM
[3] = curve of first compound, second compound 10 µM
[4] = curve of first compound, second compound 31.6 µM
[5] = curve of first compound, second compound 100 µM
[6] = second compound 1 µM, first compound 0.0949 µM
[7] = second compound 1 µM, first compound 0.3 µM
[8] = second compound 1 µM, first compound 0.949 µM
[9] = second compound 1 µM, first compound 3 µM
[10] = second compound 3.16 µM, first compound 0.0949 µM
[11] = second compound 3.16 µM, first compound 0.3 µM
[12] = second compound 3.16 µM, first compound 0.949 µM
[13] = second compound 3.16 µM, first compound 3 µM
[14] = second compound 10 µM, first compound 0.0949 µM
[15] = second compound 10 µM, first compound 0.3 µM
[16] = second compound 10 µM, first compound 0.949 µM
[17] = second compound 10 µM, first compound 3 µM
[18] = second compound 31.6 µM, first compound 0.0949 µM
[19] = second compound 31.6 µM, first compound 0.3 µM
[20] = second compound 31.6 µM, first compound 0.949 µM
[21] = second compound 31.6 µM, first compound 3 µM
[22] = second compound 100 µM, first compound 0.0949 µM
[23] = second compound 100 µM, first compound 0.3 µM
[24] = second compound 100 µM, first compound 0.949 µM
[25] = second compound 100 µM, first compound 3 µM
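Note: spheroids exposed to agents for 7 days.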

What does the source list for `CC(C)n1c(=O)n(C)c2cnc3cc(F)c(-c4ccc(OCCCN5CCCCC5)nc4)cc3c21` + Cn1nnc2c(C(N)=O)ncn2c1=O?
IC50 [1]: 0.124 µM; IC50 [2]: 0.225 µM; IC50 [3]: 0.266 µM; IC50 [4]: 0.141 µM; IC50 [5]: < 0.0316 µM; viability, T/C (second compound 1 µM, first compound 0.0316 µM): 57.7%; viability, T/C (second compound 1 µM, first compound 0.1 µM): 55.8%; viability, T/C (second compound 1 µM, first compound 0.316 µM): 36.1%; viability, T/C (second compound 1 µM, first compound 1 µM): 20.8%; viability, T/C (second compound 1 µM, first compound 3.16 µM): 13.7%; viability, T/C (second compound 1 µM, first compound 10 µM): 5.19%; viability, T/C (second compound 3.16 µM, first compound 0.0316 µM): 77.4%; viability, T/C (second compound 3.16 µM, first compound 0.1 µM): 67%; viability, T/C (second compound 3.16 µM, first compound 0.316 µM): 43%; viability, T/C (second compound 3.16 µM, first compound 1 µM): 20.6%; viability, T/C (second compound 3.16 µM, first compound 3.16 µM): 19.5%; viability, T/C (second compound 3.16 µM, first compound 10 µM): 6.63%; viability, T/C (second compound 10 µM, first compound 0.0316 µM): 74.2%; viability, T/C (second compound 10 µM, first compound 0.1 µM): 72%; viability, T/C (second compound 10 µM, first compound 0.316 µM): 45.1%; viability, T/C (second compound 10 µM, first compound 1 µM): 21.4%; viability, T/C (second compound 10 µM, first compound 3.16 µM): 18.9%; viability, T/C (second compound 10 µM, first compound 10 µM): 5.99%; viability, T/C (second compound 31.6 µM, first compound 0.0316 µM): 67.8%; viability, T/C (second compound 31.6 µM, first compound 0.1 µM): 58.5%; viability, T/C (second compound 31.6 µM, first compound 0.316 µM): 32.8%; viability, T/C (second compound 31.6 µM, first compound 1 µM): 19.8%; viability, T/C (second compound 31.6 µM, first compound 3.16 µM): 14.5%; viability, T/C (second compound 31.6 µM, first compound 10 µM): 6.37%; viability, T/C (second compound 100 µM, first compound 0.0316 µM): 45.8%; viability, T/C (second compound 100 µM, first compound 0.1 µM): 23.7%; viability, T/C (second compound 100 µM, first compound 0.316 µM): 17.5%; viability, T/C (second compound 100 µM, first compound 1 µM): 12.1%; viability, T/C (second compound 100 µM, first compound 3.16 µM): 8.75%; viability, T/C (second compound 100 µM, first compound 10 µM): 5.3%

For `O=C(c1cc(Cc2n[nH]c(=O)c3ccccc23)ccc1F)N1CCN(C(=O)C2CC2)CC1` + Cn1nnc2c(C(N)=O)ncn2c1=O, which IC50 [1] is on record?
The IC50 was 3.1 µM.

And the IC50 [2]?
Its IC50 is 3.28 µM.

What about the IC50 [3] of the same molecule?
Its IC50 is 2.52 µM.

And the IC50 [4]?
Its IC50 is 2.04 µM.

What about the IC50 [5] of the same molecule?
Its IC50 is 0.233 µM.

And the viability, T/C [6]?
Its viability, T/C is 88.6%.

And the viability, T/C [7]?
Its viability, T/C is 86.2%.

What about the viability, T/C [8] of the same molecule?
Its viability, T/C is 71.6%.

What about the viability, T/C [9] of the same molecule?
Its viability, T/C is 55.6%.

And the viability, T/C (second compound 1 µM, first compound 9.49 µM)?
The viability, T/C was 12%.

What about the viability, T/C (second compound 1 µM, first compound 30 µM) of the same molecule?
The viability, T/C was 6.69%.

What about the viability, T/C [10] of the same molecule?
Its viability, T/C is 97.8%.

And the viability, T/C [11]?
Its viability, T/C is 87.7%.

And the viability, T/C [12]?
The viability, T/C was 83.5%.

What about the viability, T/C [13] of the same molecule?
Its viability, T/C is 54.6%.

And the viability, T/C (second compound 3.16 µM, first compound 9.49 µM)?
Its viability, T/C is 12.8%.

What about the viability, T/C (second compound 3.16 µM, first compound 30 µM) of the same molecule?
Its viability, T/C is 7.75%.

What about the viability, T/C [14] of the same molecule?
Its viability, T/C is 101%.

And the viability, T/C [15]?
The viability, T/C was 85.2%.

And the viability, T/C [16]?
The viability, T/C was 80.2%.

And the viability, T/C [17]?
The viability, T/C was 45.8%.

What about the viability, T/C (second compound 10 µM, first compound 9.49 µM) of the same molecule?
Its viability, T/C is 13.1%.

What about the viability, T/C (second compound 10 µM, first compound 30 µM) of the same molecule?
Its viability, T/C is 6.66%.

What about the viability, T/C [18] of the same molecule?
The viability, T/C was 96.5%.

And the viability, T/C [19]?
Its viability, T/C is 83.8%.

What about the viability, T/C [20] of the same molecule?
The viability, T/C was 69.7%.

And the viability, T/C [21]?
The viability, T/C was 44.4%.

What about the viability, T/C (second compound 31.6 µM, first compound 9.49 µM) of the same molecule?
The viability, T/C was 6.18%.

What about the viability, T/C (second compound 31.6 µM, first compound 30 µM) of the same molecule?
The viability, T/C was 6.01%.

And the viability, T/C [22]?
Its viability, T/C is 68.1%.

What about the viability, T/C [23] of the same molecule?
The viability, T/C was 43.8%.

And the viability, T/C [24]?
The viability, T/C was 26.7%.

And the viability, T/C [25]?
Its viability, T/C is 10%.

And the viability, T/C (second compound 100 µM, first compound 9.49 µM)?
Its viability, T/C is 4.29%.

And the viability, T/C (second compound 100 µM, first compound 30 µM)?
Its viability, T/C is 3.96%.

What does the source list for `Cn1ncnc1[C@H]1c2n[nH]c(=O)c3cc(F)cc(c23)N[C@@H]1c1ccc(F)cc1` + Cn1nnc2c(C(N)=O)ncn2c1=O?
IC50 [1]: 0.0245 µM; IC50 [2]: 0.0135 µM; IC50 [3]: 0.0126 µM; IC50 [4]: < 0.00949 µM; IC50 [5]: < 0.00949 µM; viability, T/C (second compound 1 µM, first compound 0.00949 µM): 59.9%; viability, T/C (second compound 1 µM, first compound 0.03 µM): 48.6%; viability, T/C [6]: 27%; viability, T/C [7]: 12.1%; viability, T/C [8]: 9.08%; viability, T/C [9]: 2.19%; viability, T/C (second compound 3.16 µM, first compound 0.00949 µM): 54.8%; viability, T/C (second compound 3.16 µM, first compound 0.03 µM): 40.1%; viability, T/C [10]: 19.1%; viability, T/C [11]: 14.3%; viability, T/C [12]: 7.67%; viability, T/C [13]: 2.76%; viability, T/C (second compound 10 µM, first compound 0.00949 µM): 57.8%; viability, T/C (second compound 10 µM, first compound 0.03 µM): 26.8%; viability, T/C [14]: 15.8%; viability, T/C [15]: 13.2%; viability, T/C [16]: 7%; viability, T/C [17]: 3.32%; viability, T/C (second compound 31.6 µM, first compound 0.00949 µM): 27.6%; viability, T/C (second compound 31.6 µM, first compound 0.03 µM): 12%; viability, T/C [18]: 9.07%; viability, T/C [19]: 7.7%; viability, T/C [20]: 5.14%; viability, T/C [21]: 2.14%; viability, T/C (second compound 100 µM, first compound 0.00949 µM): 7.96%; viability, T/C (second compound 100 µM, first compound 0.03 µM): 7.44%; viability, T/C [22]: 5.25%; viability, T/C [23]: 4.75%; viability, T/C [24]: 4.31%; viability, T/C [25]: 2.46%

`CC[C@@]1(O)C(=O)OCc2c1cc1n(c2=O)Cc2cc3c(CN(C)C)c(O)ccc3nc2-1` was tested. Which viability, T/C (compound 0.00949 µM) did it give?
Its viability, T/C is 89.3% [middle of 10 runs].

And the viability, T/C (compound 0.03 µM)?
The viability, T/C was 38.3% [middle of 10 runs].

What about the viability, T/C (compound 0.0949 µM) of the same molecule?
Its viability, T/C is 6.41% [middle of 10 runs].

And the viability, T/C (compound 0.3 µM)?
Its viability, T/C is 1.78% [middle of 10 runs].

And the IC50 (compound alone, run of 10/17/2019)?
The IC50 was 21.5 nM [middle of 5 runs].

What about the IC50 (compound alone, run of 10/25/2019) of the same molecule?
Its IC50 is 23.4 nM [middle of 4 runs].
